Measured values from patent US11174269B2, “Method for producing 1,2,4,5-cyclohexanetetracarboxylic dianhydride” (MITSUBISHI GAS CHEMICAL COMPANY, INC., priority 2017, dated 2021).

Assay: Saturation solubility of 1,2,4,5-cyclohexanetetracarboxylic acid in water
Format: physicochemical
Text: Here, the saturation solubility of 1,2,4,5-cyclohexanetetracarboxylic acid in water is as follows.

Saturation solubility (concentration of a saturated aqueous solution) (88.2 °C): 29.6 % by mass | Saturation solubility (concentration of a saturated aqueous solution) (98.3 °C): 33.1 % by mass | Saturation solubility (concentration of a saturated aqueous solution) (100 °C): 33.7 % by mass
SMILES: O=C(O)C1CC(C(=O)O)C(C(=O)O)CC1C(=O)O (stereo not drawn) [1,2,4,5-cyclohexanetetracarboxylic acid]
